PubChem BioAssay (NCI)
Several values for one entry are separate records, joined by “and”; a condition that tells them apart may be missing. Equal values may be shown once.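 Assay format: 96-well plates, 48-hour exposure. Abbreviation: GI50, concentration required for 50% inhibition of growth. TGI denotes the concentration required for complete inhibition of growth.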

Tests used:
Test in all cases: DTP human tumour cell line panel, 48 h
HS 578T breast = test system: HS 578T breast
M14 melanoma = test system: M14 melanoma
NCI-H226 lung = test system: NCI-H226 lung
NCI-H23 lung = test system: NCI-H23 lung
NCI-H460 lung = test system: NCI-H460 lung
RPMI-8226 leukemia = test system: RPMI-8226 leukemia
RXF 393 renal = test system: RXF 393 renal
SF-539 CNS = test system: SF-539 CNS
SNB-75 CNS = test system: SNB-75 CNS
SR leukemia = test system: SR leukemia

| SMILES | TGI (HS 578T breast) [µM] | GI50 (M14 melanoma) [µM] | TGI (M14 melanoma) | GI50 (NCI-H226 lung) [µM] | TGI (NCI-H226 lung) | GI50 (NCI-H23 lung) [µM] | TGI (NCI-H23 lung) | GI50 (NCI-H460 lung) [µM] | TGI (NCI-H460 lung) | GI50 (RPMI-8226 leukemia) [µM] | TGI (RPMI-8226 leukemia) [µM] | GI50 (RXF 393 renal) [µM] | TGI (RXF 393 renal) | GI50 (SF-539 CNS) [µM] | TGI (SF-539 CNS) | GI50 (SNB-75 CNS) [µM] | TGI (SNB-75 CNS) | GI50 (SR leukemia) [µM] | TGI (SR leukemia) [µM] | GI50 (HS 578T breast) [µM] |
| --- | --- | --- | --- | --- | --- | --- | --- | --- | --- | --- | --- | --- | --- | --- | --- | --- | --- | --- | --- | --- |
| NC(=O)c1nnn(Cc2cc(Cl)c(C(=O)c3ccc(Cl)cc3)c(Cl)c2)c1N | > 64.3 | > 9.09 | > 9.09 µM and 36.7 µM | > 9.09 | > 9.09 µM and 55.8 µM | > 9.09 | > 9.09 µM and 43 µM | 1.04 | > 9.09 µM and 40.2 µM | > 9.09 | > 70.6 | > 9.09 | > 9.09 µM and 39.3 µM | > 9.09 | > 9.09 µM and 46.5 µM | > 9.09 | > 9.09 µM and 48 µM | 21.7 | > 100 | – |
| O=C1Nc2ccccc2C1(c1ccc(O)c(F)c1)c1ccc(O)c(F)c1 | 4.44 | 12 | 65.5 µM | 11 | 39.7 µM | 0.532 | 25.2 µM | 19 | 47.8 µM | 15.7 | 52.6 | 0.969 | 10.5 µM | 12.6 | 36.8 µM | 0.661 | 36.5 µM | 3.83 | > 52.3 | 0.3 |
| COc1ccc(/C=C2\N=C(c3ccccc3)N(c3cc(C(F)(F)F)ccc3Cl)C2=O)cc1OC | 78.4 | 28.5 | 65.8 µM | 56.6 | > 100 µM | 90.6 | > 100 µM | 43 | > 100 µM | 25.8 | 80.8 | 33.5 | 68.3 µM | 24.2 | 57 µM | 56.7 | > 100 µM | – | 0.0635 | 24.4 |
| O=C1Nc2cc(Cl)ccc2Oc2cc(Oc3ccccc3)ccc21 | 27.5 | 4.76 | 50.2 µM | 6.41 | 55.8 µM | 3.78 | 29.9 µM | 2.91 | 11.7 µM | 5.35 | > 100 | 2.09 | 9.87 µM | 8.53 | 40 µM | 1.49 | 20.1 µM | 2.89 | 29.5 | 3.31 |
| O=C(/C=C/C=C/c1ccccc1)c1ccc(Nc2nc(Nc3ccccc3)nc(Nc3ccccc3)n2)cc1 | > 100 | 77.5 | > 100 µM | > 100 | > 100 µM | > 100 | > 100 µM | 42.8 | > 100 µM | 4.12 | > 100 | 1.62 | 47.5 µM | 61.6 | > 100 µM | 17.8 | > 100 µM | 9.45 | 92.9 | 29 |
| COc1cc(C(=O)NC2CCN(C)CC2)ccc1Nc1ncc2c(n1)N(C1CCCC1)CC(F)(F)C(=O)N2C | 1.53 | < 0.0148 | 5.09 µM | 2.17 | 14.3 µM | < 0.0114 | 2.98 µM | < 0.0152 | 11.6 µM | – | 8.33 | 0.054 | 11.8 µM | 0.0215 | 5.13 µM | 0.0198 | 16.1 µM | < 0.01 | 0.448 | 0.0585 |
| Nc1ncnc2c1c(-c1cccc(OCc3ccccc3)c1)cn2C1CC(CN2CCCC2)C1 (configuration not stated) | 4.19 | 1.61 | 3.2 µM | 1.34 | 6.98 µM | 2.91 | 16 µM | 1.66 | 7.65 µM | 1.94 | 5.4 | 1.21 | 2.68 µM | 1.6 | 3.02 µM | 1.24 | 3.19 µM | 2.4 | 11.2 | 1.6 |
| CCOC(=O)C1=C(N)Oc2c(sc3c(C)cccc23)C1c1ccc(Cl)cc1 (configuration not stated) | 6.95 | 2.46 | 11.2 µM | 5.02 | 19.8 µM | 2.5 | 10.5 µM | 3.29 | 11.6 µM | 3.26 | 13.1 | 1.45 | 4.47 µM | 1.8 | 5.57 µM | 0.643 | 7.79 µM | 1.49 | 18 | 1.78 |
| CCCCCCCCCCCC1=NC(C)(C)CN1CCO | 25.6 | 1.92 | 3.74 µM | 15.4 | 36.2 µM | 5.56 | 18.6 µM | 2.88 | 7.66 µM | 2.3 | 7.46 | 3.94 | 10.5 µM | 4.37 | 8.79 µM | 7.93 | 21.6 µM | 2.38 | 5.79 | 7.51 |
| C=C1C(=O)O[C@H]2[C@H]1CC/C(C=Nc1ccc(C(F)(F)F)cc1N)=C\CC[C@@]1(C)O[C@@H]21 | 40.4 | 8.04 | 22.3 µM | 10 | 32.2 µM | 10.7 | 25.7 µM | 7.07 | 22.7 µM | 3.24 | 10.1 | 2.87 | 9.22 µM | 3.94 | 15.4 µM | 10.9 | 23.2 µM | 2.66 | 10.7 | 11.2 |
| CCOC(=O)c1c[nH]c2c(OCc3ccccc3)c3ccccc3c(O)c2c1=O | 48 | 11.3 | > 59.4 µM | 4.28 | 20.8 µM | 6.75 | 28.6 µM | 4.29 | > 47.5 µM | 26.9 | > 100 | 22.6 | 55.7 µM | 2.53 | 11.2 µM | 11.6 | > 54.4 µM | 21.3 | > 100 | 13.5 |
| C(=N/Nc1ncnc2nc[nH]c12)/c1ccccn1 | > 100 | 0.766 | 3.63 µM | 1.57 | 53.1 µM | 2.91 | > 100 µM | 3.29 | > 50.8 µM | 3.9 | > 100 | 1.92 | 7.32 µM | 1.3 | 5.72 µM | 1.73 | 35.1 µM | 0.4 | > 100 | 12.7 |
| CCCN(CCC)c1ccc(C=O)cc1 | > 100 | > 100 | > 100 µM | 30 | > 100 µM | 36.9 | > 100 µM | > 100 | > 100 µM | 54.5 | > 100 | 72.2 | > 100 µM | > 100 | > 100 µM | 18.4 | > 100 µM | 33.7 | > 100 | > 62.1 |
| Cc1ccc(Cl)cc1Nc1nc(C(F)(F)F)ccc1C(=O)N/N=C/c1c(Cl)cccc1Cl | 6.18 | 1 | 5.67 µM | 1.1 | 4.53 µM | 1.55 | 7.39 µM | 0.578 | 4.81 µM | 0.32 | 1.79 | 1.23 | 3.48 µM | 1.62 | 5.05 µM | 1.45 | > 24.2 µM | 0.251 | 3.88 | 1.04 |
| COc1ccc2nc3cccc([N+](=O)[O-])c3c(NCCN(CCO)CCO)c2c1 | 0.272 | 0.0128 | 0.0275 µM | 0.0822 | 0.536 µM | 0.0202 | 0.048 µM | 0.0104 | 0.0985 µM | 0.0155 | 0.102 | 0.0155 | 0.032 µM | 0.0893 | 0.27 µM | 0.0747 | 0.225 µM | 0.017 | 0.647 | 0.0647 |
